Read-outs that look alike come from different tables or passages of the source.
Legend:
[1] = Biostudy of carisoprodol (SOMA®) pharmacokinetics under non-fasted and fasted conditions, randomized single-dose two-way crossover; format: in vivo, human (healthy adults); conditions: for AUC(0-inf) / AUC(0-t) / Tmax / Cmax: plasma; for AUC(0-inf): read-out: AUC0-INF, geometric mean (ln-transformed); for AUC(0-t): read-out: AUC0-t, geometric mean (ln-transformed); for Tmax: read-out: Tmax, least sq. mean (non-transformed); for Cmax: single dose SOMA®, 22 subjects, read-out: Cmax, geometric mean (ln-transformed)
Protocol: A biostudy was conducted under fasted and non-fasted conditions.
The dosage form is administered with 240 ml of water during the fasting period, and water can be allowed ad libitum after 2 hours.
As used herein, for the purposes of biostudy and the determination of bioequivalence, a non-fasted patient is defined as a patient who fasts for at least 10 hours overnight and then consumes an entire test meal within 30 minutes of first ingestion. The dosage form is administered with 240 mL of water at 30 minutes after first ingestion of the meal. No food is then allowed for at least 4 hours post-dose. Water can be allowed ad libitum after 2 hours. A high fat test meal provides approximately 1000 calories to the patient of which approximately 50% of the caloric content is derived from fat content of the meal. A representative high fat high calorie test meal comprises 2 eggs fried in butter, 2 strips of bacon, 2 slices of toast with butter, 4 ounces of hash brown potatoes, and 8 ounces of whole milk to provide 150 protein calories, 250 carbohydrate calories, and 500 to 600 fat calories.
The study was designed as a randomized, single-dose two-way crossover to compare the pharmacokinetic parameters of SOMA®. Twenty-four healthy adults participated in this comparison study and 22 of the subjects completed the study. Subjects received two separate drug administration treatments in assigned periods, one treatment per period, according to the randomization schedule. Dosing days were separated by a washout period of at least seven days. Blood samples were drawn prior to dosing (pre-dose) and at 0.33, 0.67, 1, 1.5, 2, 2.5, 3, 3.5, 4, 5, 6, 7, 8, 10, 12, 18, and 24 hours post-dose. The samples were then analyzed for carisoprodol and meprobamate.
The following pharmacokinetic parameters may be determined from the plasma concentration data:
The area under the plasma concentration versus time curve [AUCt] may be calculated using the linear trapezoidal rule from the zero time point to the last measured concentration.
The area under the plasma concentration versus time curve from zero to infinity [AUC0-INF] may be calculated by adding Ct/Kelm to AUC where Ct is the last measured concentration and Kelm is the elimination rate constant.
The maximum observed plasma concentration [Cmax] may be obtained by inspection. The Cmax may also be designated as CMAX.
The time to maximum plasma concentration [Tmax] may be obtained by inspection. If the same maximum plasma concentration occurs at more than one time point, the first may be chosen as Tmax.
The terminal elimination rate constant [Kelm] may be obtained from the slope of the line, fitted by linear least squares regression, through the terminal points of the 1n(base e) of the concentration versus time plot for these points.
The half-life [T1/2] may be calculated by the equation T1/2=0.693/Kelm.

[2] = cited from earlier work
[3] = carisoprodol, non-fasted compared to fasted
[4] = carisoprodol, non-fasted vs fasted
[5] = human, oral, carisoprodol in plasma, fasted
[6] = human, oral, carisoprodol in plasma, non-fasted

CCCC(C)(COC(N)=O)COC(=O)NC(C)C (stereo not drawn) [carisoprodol, N-isopropyl-2-methyl-2-propyl-1,3-propanediol dicarbamate]
T½, least sq. mean ([1]; carisoprodol in plasma, fasted): 1.95 h
kelm (elimination rate constant), least sq. mean ([1]; carisoprodol in plasma, fasted): 0.376
kelm (elimination rate constant), least sq. mean ([1]; carisoprodol in plasma, non-fasted): 0.3713
decrease in the geometric mean of Cmax in the presence of food [1, 3]: 16%
effect of food on AUC (AUC0-t and AUC0-INF) (in words) [1, 3]: substantially unchanged
effect of food on Cmax (in words) [1, 3]: decreases
AUC0-INF, % Ratio of geometric means [1, 4]: 96.8%
AUC0-t, % Ratio of geometric means [1, 4]: 96.1%
Cmax, % Ratio of geometric means [1, 4]: 83.8%
Tmax, % Ratio [1, 4]: 137.5%
T½, % Ratio [1, 4]: 100%
kelm, % Ratio [1, 4]: 98.7%
half-life ([1]; human, oral, carisoprodol in plasma, non-fasted, read-out: T½, least sq. mean (converted)): 1.95 h
AUC(0-inf) [1, 5]: 6510 ng·h/mL
AUC(0-t) [1, 5]: 6380 ng·h/mL
Tmax [1, 5]: 1.63 h
Cmax [1, 5]: 2000 ng/mL
Cmax ([1]; human, oral, carisoprodol in plasma, non-fasted (high fat meal)): 1680 ng/mL
AUC(0-inf) [1, 6]: 6310 ng·h/mL
AUC(0-t) [1, 6]: 6140 ng·h/mL
Tmax [1, 6]: 2.24 h
solubility in organic solvents (in words) ([2]; alcohol, chloroform, and acetone): freely soluble
solubility in water ([2]; between 25 to 50° C.): 300 to 1400 µg/mL
solubility in water (in words) ([2]; water): very sparingly soluble
